Experimental data published in patent US10266526B2, “Substituted 1,2,3-triazoles as SMYD inhibitors for treating cancer” (EPIZYME, INC., priority 2014, dated 2019).

biological target: SMYD3 (Homo sapiens (Human), UniProt Q9H7B4); assay: SMYD3 biochemical assay (SMYD3 enzyme assay on MEKK2 protein substrate, 3H-SAM scintillation proximity assay); conditions: read-out: SMYD3 Biochem IC50
Outline: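 Native full-length human SMYD3, expressed in E. coli, was preincubated with compound for 30 min at room temperature in 25 mM Tris-Cl pH 8.0, 1 mM TCEP, 0.005% BSG and 0.005% Tween 20. ³H-SAM plus GST-MEKK2 then started the reaction. It was stopped with unlabeled SAM (100 uM final), and methylated MEKK2 was read by SPA.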

Sequence of SMYD3 (Q9H7B4 whole entry): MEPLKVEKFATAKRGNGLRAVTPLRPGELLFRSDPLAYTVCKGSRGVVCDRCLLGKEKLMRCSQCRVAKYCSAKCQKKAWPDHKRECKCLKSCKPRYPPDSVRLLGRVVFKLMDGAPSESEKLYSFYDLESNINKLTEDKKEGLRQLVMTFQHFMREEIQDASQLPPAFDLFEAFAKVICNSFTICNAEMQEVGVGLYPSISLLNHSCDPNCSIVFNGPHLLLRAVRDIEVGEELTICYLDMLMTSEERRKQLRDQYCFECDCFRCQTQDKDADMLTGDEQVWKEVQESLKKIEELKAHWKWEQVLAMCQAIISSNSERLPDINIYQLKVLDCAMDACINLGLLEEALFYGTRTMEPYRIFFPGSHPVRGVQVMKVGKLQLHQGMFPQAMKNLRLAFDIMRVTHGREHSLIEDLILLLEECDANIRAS

SMILES | IC50 [µM]
CN(C(=O)CN)C1CCC(NC(=O)c2ccc3c(c2)CC(=O)N3)CC1 (centres unmarked) [compound 214, N-(4-(2-amino-N-methylacetamido)cyclohexyl)-2-oxoindoline-5-carboxamide] | 1.25
Cc1cnc(C(=O)N[C@H]2CC[C@H](NC(=O)CCN)CC2)cn1 [compound 215, N-((1r,4r)-4-(3-aminopropanamido)cyclohexyl)-5-methylpyrazine-2-carboxamide] | > 100
Cc1nn(C(C)C(=O)NC(C)C2CCN(C(=O)[C@H](C)N)CC2)c(C)c1Br (stereo partly drawn) [compound 216, N-(1-(1-(L-alanyl)piperidin-4-yl)ethyl)-2-(4-bromo-3,5-dimethyl-1H-pyrazol-1-yl)propanamide] | > 100
Cc1c(C(=O)NC(C)C2CCN(C(=O)[C@H](C)N)CC2)nnn1-c1ccccc1 (stereo partly drawn) [compound 217, N-(1-(1-(L-alanyl)piperidin-4-yl)ethyl)-5-methyl-1-phenyl-1H-1,2,3-triazole-4-carboxamide] | > 100
CC1=NN(c2ccc(C(=O)NC(C)C3CCN(C(=O)[C@H](C)N)CC3)cc2)C(=O)C1 (stereo partly drawn) [compound 218, N-(1-(1-(L-alanyl)piperidin-4-yl)ethyl)-4-(3-methyl-5-oxo-4,5-dihydro-1H-pyrazol-1-yl)benzamide] | 77
CC(NC(=O)c1ccc2cnn(C)c2c1)C1CCN(C(=O)[C@H](C)N)CC1 (stereo partly drawn) [compound 219, N-(1-(1-(L-alanyl)piperidin-4-yl)ethyl)-1-methyl-1H-indazole-6-carboxamide] | > 100
COc1ccc2cc(C(=O)NC(C)C3CCN(C(=O)[C@H](C)N)CC3)ccc2c1 (stereo partly drawn) [compound 220, N-(1-(1-(L-alanyl)piperidin-4-yl)ethyl)-6-methoxy-2-naphthamide] | > 100
COc1cc(C(=O)NC(C)C2CCN(C(=O)[C@H](C)N)CC2)c2ccccc2n1 (stereo partly drawn) [compound 221, N-(1-(1-(L-alanyl)piperidin-4-yl)ethyl)-2-methoxyquinoline-4-carboxamide] | > 100
COc1cc(C(=O)N[C@H]2CC[C@H](NC(=O)CCN)CC2)c2ccccc2n1 [compound 222, N-((1r,4r)-4-(3-aminopropanamido)cyclohexyl)-2-methoxyquinoline-4-carboxamide] | > 100
COc1cc(C(=O)N[C@H]2CC[C@H](N)CC2)c2ccccc2n1 [compound 223, N-((1r,4r)-4-aminocyclohexyl)-2-methoxyquinoline-4-carboxamide] | > 100
CC(NC(=O)c1cc(=O)c2ccccc2o1)C1CCN(C(=O)[C@H](C)N)CC1 (stereo partly drawn) [compound 224, N-(1-(1-(L-alanyl)piperidin-4-yl)ethyl)-4-oxo-4H-chromene-2-carboxamide] | > 100
CC(NC(=O)c1cc(O)c2ccccc2n1)C1CCN(C(=O)[C@H](C)N)CC1 (stereo partly drawn) [compound 225, N-(1-(1-(L-alanyl)piperidin-4-yl)ethyl)-4-hydroxyquinoline-2-carboxamide] | > 100
CC(NC(=O)c1ccc(-n2cnnc2)cc1)C1CCN(C(=O)[C@H](C)N)CC1 (stereo partly drawn) [compound 226, N-(1-(1-(L-alanyl)piperidin-4-yl)ethyl)-4-(4H-1,2,4-triazol-4-yl)benzamide] | > 100
CC(NC(=O)c1ccc(N2CCCC2)cc1)C1CCN(C(=O)[C@H](C)N)CC1 (stereo partly drawn) [compound 227, N-(1-(1-(L-alanyl)piperidin-4-yl)ethyl)-4-(pyrrolidin-1-yl)benzamide] | 29.2
CC(NC(=O)c1ccc2ncsc2c1)C1CCN(C(=O)[C@H](C)N)CC1 (stereo partly drawn) [compound 228, N-(1-(1-(L-alanyl)piperidin-4-yl)ethyl)benzo[d]thiazole-6-carboxamide] | > 100
CC(NC(=O)c1cc2cc(Cl)ccc2[nH]1)C1CCN(C(=O)[C@H](C)N)CC1 (stereo partly drawn) [compound 229, N-(1-(1-(L-alanyl)piperidin-4-yl)ethyl)-5-chloro-1H-indole-2-carboxamide] | 77.9
NCCC(=O)N[C@H]1CC[C@H](NC(=O)c2cc3cc(Cl)ccc3[nH]2)CC1 [compound 230, N-((1r,4r)-4-(3-aminopropanamido)cyclohexyl)-5-chloro-1H-indole-2-carboxamide] | 37.5
N[C@H]1CC[C@H](NC(=O)c2cc3cc(Cl)ccc3[nH]2)CC1 [compound 231, N-((1r,4r)-4-aminocyclohexyl)-5-chloro-1H-indole-2-carboxamide] | 91.5
CC(NC(=O)c1cc2ccccc2[nH]1)C1CCN(C(=O)[C@H](C)N)CC1 (stereo partly drawn) [compound 232, N-(1-(1-(L-alanyl)piperidin-4-yl)ethyl)-1H-indole-2-carboxamide] | > 100
NCCC(=O)N[C@H]1CC[C@H](NC(=O)c2cc3ccccc3[nH]2)CC1 [compound 233, N-((1r,4r)-4-(3-aminopropanamido)cyclohexyl)-1H-indole-2-carboxamide] | > 100
N[C@H]1CC[C@H](NC(=O)c2cc3ccccc3[nH]2)CC1 [compound 234, N-((1r,4r)-4-aminocyclohexyl)-1H-indole-2-carboxamide] | > 100
NCCC(=O)N[C@H]1CC[C@H](NC(=O)c2ccc3[nH]ccc3c2)CC1 [compound 235, N-((1r,4r)-4-(3-aminopropanamido)cyclohexyl)-1H-indole-5-carboxamide] | 13.4

SMILES | IC50 [µM]
CC(NC(=O)c1ccc2c(c1)no[n+]2[O-])C1CCN(C(=O)[C@H](C)N)CC1 (stereo partly drawn) [compound 236, 5-((1-(1-(L-alanyl)piperidin-4-yl)ethyl)carbamoyl)benzo[c][1,2,5]oxadiazole 1-oxide] | > 100
CC(NC(=O)c1ccc2nonc2c1)C1CCN(C(=O)[C@H](C)N)CC1 (stereo partly drawn) [compound 237, N-(1-(1-(L-alanyl)piperidin-4-yl)ethyl)benzo[c][1,2,5]oxadiazole-5-carboxamide] | > 100
CC(NC(=O)c1cnc2ccccc2n1)C1CCN(C(=O)[C@H](C)N)CC1 (stereo partly drawn) [compound 238, N-(1-(1-(L-alanyl)piperidin-4-yl)ethyl)quinoxaline-2-carboxamide] | > 100
CC(NC(=O)c1cn2ccsc2n1)C1CCN(C(=O)[C@H](C)N)CC1 (stereo partly drawn) [compound 239, N-(1-(1-(L-alanyl)piperidin-4-yl)ethyl)imidazo[2,1-b]thiazole-6-carboxamide] | > 100
CC(NC(=O)CCCn1ccnc1)C1CCN(C(=O)[C@H](C)N)CC1 (stereo partly drawn) [compound 241, N-(1-(1-(L-alanyl)piperidin-4-yl)ethyl)-4-(1H-imidazol-1-yl)butanamide] | 82.9
N[C@H]1CC[C@H](NC(=O)c2cc3cc(F)ccc3[nH]2)CC1 [compound 242, N-((1r,4r)-4-aminocyclohexyl)-5-fluoro-1H-indole-2-carboxamide] | > 100
CC(NC(=O)c1nc2ccccc2[nH]1)C1CCN(C(=O)[C@H](C)N)CC1 (stereo partly drawn) [compound 243, N-(1-(1-(L-alanyl)piperidin-4-yl)ethyl)-1H-benzo[d]imidazole-2-carboxamide] | 72.9
CC(NC(=O)c1cc2ccccc2n1C)C1CCN(C(=O)[C@H](C)N)CC1 (stereo partly drawn) [compound 244, N-(1-(1-(L-alanyl)piperidin-4-yl)ethyl)-1-methyl-1H-indole-2-carboxamide] | > 100
Cn1c(C(=O)N[C@H]2CC[C@H](NC(=O)CCN)CC2)cc2ccccc21 [compound 245, N-((1r,4r)-4-(3-aminopropanamido)cyclohexyl)-1-methyl-1H-indole-2-carboxamide] | > 100
Cn1c(C(=O)N[C@H]2CC[C@H](N)CC2)cc2ccccc21 [compound 246, N-((1r,4r)-4-aminocyclohexyl)-1-methyl-1H-indole-2-carboxamide] | > 100
CC(NC(=O)c1cnccc1N)C1CCN(C(=O)[C@H](C)N)CC1 (stereo partly drawn) [compound 247, N-(1-(1-(L-alanyl)piperidin-4-yl)ethyl)-4-aminonicotinamide] | > 100
CC(NC(=O)c1cccc2[nH]ccc12)C1CCN(C(=O)[C@H](C)N)CC1 (stereo partly drawn) [compound 248, N-(1-(1-(L-alanyl)piperidin-4-yl)ethyl)-1H-indole-4-carboxamide] | > 100
CC(NC(=O)c1ccnc(O)c1)C1CCN(C(=O)[C@H](C)N)CC1 (stereo partly drawn) [compound 249, N-(1-(1-(L-alanyl)piperidin-4-yl)ethyl)-2-hydroxyisonicotinamide] | 65.9
CC(NC(=O)c1ccnc(O)c1)C1CCN(C(=O)[C@H](C)N)CC1 (stereo partly drawn) [compound 250, N-(1-(1-(L-alanyl)piperidin-4-yl)ethyl)-2-hydroxyisonicotinamide] | > 100
N[C@H]1CC[C@H](NC(=O)c2ccccn2)CC1 [compound 251, N-((1r,4r)-4-aminocyclohexyl)picolinamide] | > 100
NCCC(=O)N[C@H]1CC[C@H](NC(=O)c2cnccn2)CC1 [compound 252, N-((1r,4r)-4-(3-aminopropanamido)cyclohexyl)pyrazine-2-carboxamide] | 37.4
CC(NC(=O)c1nccn1C)C1CCN(C(=O)[C@H](C)N)CC1 (stereo partly drawn) [compound 253, N-(1-(1-(L-alanyl)piperidin-4-yl)ethyl)-1-methyl-1H-imidazole-2-carboxamide] | 64.9
Cc1cnccc1C(=O)NC(C)C1CCN(C(=O)[C@H](C)N)CC1 (stereo partly drawn) [compound 254, N-(1-(1-(L-alanyl)piperidin-4-yl)ethyl)-3-methylisonicotinamide] | > 100
Cc1ccncc1C(=O)NC(C)C1CCN(C(=O)[C@H](C)N)CC1 (stereo partly drawn) [compound 255, N-(1-(1-(L-alanyl)piperidin-4-yl)ethyl)-4-methylnicotinamide] | 73.4
Cc1cncc(C(=O)NC(C)C2CCN(C(=O)[C@H](C)N)CC2)c1 (stereo partly drawn) [compound 256, N-(1-(1-(L-alanyl)piperidin-4-yl)ethyl)-5-methylnicotinamide] | 61.6
Cc1ccc(C(=O)NC(C)C2CCN(C(=O)[C@H](C)N)CC2)cn1 (stereo partly drawn) [compound 257, N-(1-(1-(L-alanyl)piperidin-4-yl)ethyl)-6-methylnicotinamide] | > 100
Cc1nscc1C(=O)NC(C)C1CCN(C(=O)[C@H](C)N)CC1 (stereo partly drawn) [compound 258, N-(1-(1-(L-alanyl)piperidin-4-yl)ethyl)-3-methylisothiazole-4-carboxamide] | > 100
